Where two headings read alike, the source gives them in different places.
What was measured:
[1] = parameters: method as in PMID 40028493; details: PVP as stabilizer, cited from earlier work
[2] = Critical nucleus radius calculated from classical nucleation theory (eqn S16); format: physicochemical; details: CTAB 0.6 g kg^−1, 25 °C
Text: This study comprehensively investigated the influence of CTAB surfactant on neomycin crystallization. […] The supersaturation (S), as the primary driving force, directly affects the induction time, critical radius, growth rate, solubility, nanoparticle size, and nucleation mechanism.[33] CTAB operates through selective adsorption on crystalline surfaces, substantially influencing the nucleation pathway.[75,76] […] Quantitative data for these parameters are presented in Table 2, with the growth rate (intensity %) and nanoparticle size data being experimentally derived from DLS analysis.
As previously explored in relation to supersaturation, growth rate, and nanoparticle size (Fig. 16), the experimental results shown in Fig. 17 further illustrate the critical radius, growth kinetics, and nanoparticle size across varying supersaturation levels.[86] Based on data obtained from DLS analysis and critical radius calculations (eqn S16), it is observed that decreasing supersaturation leads to a significant increase in crystal growth rates, resulting in the formation of larger nanoparticles.[14–16,87] […] This phenomenon follows fundamental crystallization kinetics principles where, at high supersaturation levels, the elevated concentration of solute species leads to the formation of a greater number of primary nuclei.[89] Simultaneously, the distribution of solute molecules among these numerous nuclei results in decreased growth rates for crystals, ultimately producing smaller nanoparticles with a […] size distribution.[86] The role of the CTAB stabilizer in this system is particularly crucial. Through surface adsorption mechanisms, CTAB not only prevents nanoparticle aggregation but also precisely modulates growth kinetics, enabling better control over final particle dimensions.[90] These synergistic effects contribute to the formation of colloidally stable nanoparticles with uniform size distributions. An important observation is the direct correlation between nucleation duration and critical particle size, where extended nucleation times cause the formation of smaller particles.[91] Furthermore, dynamic parameters such as agitation rate and controlled shock pulses serve as effective tools for fine-tuning nanoparticle characteristics.[92]

[3] = Interfacial energy from ln tind versus 1/T^3(ln S)^2 plot; format: physicochemical; details: CTAB 0.6 g kg^−1, 25 °C
Description: Interfacial energy at the solid–liquid interface, can typically be regarded as an intrinsic property of the system.[100] It is indeed a key parameter strongly influenced by the solvent composition and the presence of surfactants such as CTAB.[29,101] In this study, the effect of CTAB at a constant concentration of 0.6 g kg^−1 on the interfacial energy of the crystallization system of neomycin at various concentrations (20, 30, 40, and 50 g kg^−1) was investigated at a temperature of 25 °C. Key system parameters included the density of neomycin (ρ = 640 kg m^−3), measured using the volume displacement method; the shape factor (f = 0.058)[16,29] and the molar mass (M = 908.88 g mol^−1). […] At various concentrations of neomycin (20, 30, 40, and 50 g kg^−1), a comparison was made between the system stabilized with CTAB and previous studies that utilized PVP as a stabilizer.[29] […] This distinction can be attributed to a significant reduction in surface energy in the presence of CTAB, as well as distinct molecular interactions between neomycin and the cationic surfactant, which subsequently influenced solubility and nucleation behavior.[102] […] The proposed mechanism for this observation includes the effective adsorption of CTAB onto nanoparticle surfaces, alterations in the local solubility of neomycin, and the formation of stable electrical double layers at the interface.[103] Furthermore, increased agitation enhanced mass transfer, improved surfactant distribution, and promoted the formation of stable nuclei, ultimately leading to a significant reduction in surface energy and effective suppression of nanoparticle aggregation.[104]

[4] = initial neomycin 20 g kg solvent^−1
[5] = initial neomycin 30 g kg solvent^−1

## NC[C@@H]1O[C@H](O[C@H]2[C@@H](O)[C@H](O[C@@H]3[C@@H](O)[C@H](N)C[C@H](N)[C@H]3O[C@H]3O[C@H](CN)[C@@H](O)[C@H](O)[C@H]3N)O[C@@H]2CO)[C@H](N)[C@@H](O)[C@@H]1O.O=S(=O)(O)O [neomycin sulfate]
[1]; [4]
  Interfacial energy, Motahari et al.: 7.68 mJ m^−2
[1]; [5]
  Interfacial energy, Motahari et al.: 8.056 mJ m^−2
[2]; 300 rpm, initial neomycin 20 g kg^−1, S 1.18
  Critical radius: 1.689 nm
[2]; 300 rpm, initial neomycin 20 g kg^−1, S 1.21
  Critical radius: 1.467 nm
[2]; 300 rpm, initial neomycin 20 g kg^−1, S 1.33
  Critical radius: 0.981 nm
[2]; 300 rpm, initial neomycin 20 g kg^−1, S 1.45
  Critical radius: 0.753 nm
[2]; 300 rpm, initial neomycin 20 g kg^−1, S 1.66
  Critical radius: 0.552 nm
[2]; 350 rpm, initial neomycin 30 g kg^−1, S 1.2
  Critical radius: 1.534 nm
[2]; 350 rpm, initial neomycin 30 g kg^−1, S 1.25
  Critical radius: 1.254 nm
[2]; 350 rpm, initial neomycin 30 g kg^−1, S 1.28
  Critical radius: 1.133 nm
[2]; 350 rpm, initial neomycin 30 g kg^−1, S 1.43
  Critical radius: 0.782 nm
[2]; 350 rpm, initial neomycin 30 g kg^−1, S 1.67
  Critical radius: 0.545 nm
[2]; 400 rpm, initial neomycin 40 g kg^−1, S 1.29
  Critical radius: 1.099 nm
[2]; 400 rpm, initial neomycin 40 g kg^−1, S 1.379
  Critical radius: 0.957 nm
[2]; 400 rpm, initial neomycin 40 g kg^−1, S 1.48
  Critical radius: 0.714 nm
[2]; 400 rpm, initial neomycin 40 g kg^−1, S 1.66
  Critical radius: 0.552 nm
[2]; 400 rpm, initial neomycin 40 g kg^−1, S 1.9
  Critical radius: 0.436 nm
[2]; 450 rpm, initial neomycin 50 g kg^−1, S 1.351
  Critical radius: 0.932 nm
[2]; 450 rpm, initial neomycin 50 g kg^−1, S 1.408
  Critical radius: 0.817 nm
[2]; 450 rpm, initial neomycin 50 g kg^−1, S 1.47
  Critical radius: 0.726 nm
[2]; 450 rpm, initial neomycin 50 g kg^−1, S 1.666
  Critical radius: 0.548 nm
[2]; 450 rpm, initial neomycin 50 g kg^−1, S 1.785
  Critical radius: 0.483 nm
[3]; [4]
  Interfacial energy this work: 1.33 mJ m^−2
[3]; [5]
  Interfacial energy this work: 1.41 mJ m^−2
[3]; initial neomycin 40 g kg solvent^−1
  Interfacial energy this work: 1.9 mJ m^−2
[3]; initial neomycin 50 g kg solvent^−1
  Interfacial energy this work: 2.14 mJ m^−2
